Results published in patent US9139613B2, “Macrocyclic compounds and methods for their production” (NEUROVIVE PHARMACEUTICAL AB, priority 2011, dated 2015).
Read-outs that look alike come from different tables or passages of the source.

What was measured:
[1] = Mouse in vivo oral and iv PK; details: male, whole blood, CD1 mice
Procedure: For sanglifehrin analogues, whole blood is analysed. Compounds are formulated in 5% ethanol/5% cremophor EL/90% saline for both p.o. and i.v. administration. Groups of 3 male CD1 mice are dosed with either 1 mg/kg i.v. or 5 or 10 mg/kg p.o. Blood samples (40 μL) are taken via saphenous vein, pre-dose and at 0.25, 0.5, 2, 8, and 24 hours, and diluted with an equal amount of dH20 and put on dry ice immediately. Samples are stored at −70° C. until analysis. The concentration of the compound of the invention or parent compound in the sample is determined via LCMS as follows: 20 μL of blood:H2O (1:1, v/v)/PK sample is added with 20 μL Internal standard (hydroxyl macrocycle, 6) at 100 ng/mL, 20 μL working solution/MeOH and 150 μL of ACN, vortexed for 1 minute at 1500 rpm, and centrifuged at 12000 rpm for 5 min. The supernatant is then injected into LC-MS/MS. The time-course of blood concentrations is plotted and used to derive area under the whole blood concentration-time curve (AUC—which is directly proportional to the total amount of unchanged drug that reaches the systemic circulation). These values are used to generate PK parameters where possible.
To assess the pharmacokinetics of the compounds in an in vivo setting, compounds were dosed po at 10 or 5 mg/kg and iv at 1 mg/kg to groups of CD1 mice. Pharmacokinetic analysis was carried out as described in the general methods. […]

[2] = Anti-metabolic effect (MTS) in Huh5.2 replicon cells; details: human
Procedure: (§1) Dilution series are prepared; each dilution series is performed in at least duplicate.
(§2) The selectivity index (SI), indicative of the therapeutic window of the compound, is calculated as CC50/EC50.

[3] = system: HCV genotype 1b replicon in Huh5.2 cells; assay: HCV genotype 1b replicon assay using Huh5.2 cells (antiviral effect, luciferase); format: cell-based, Hepatitis C virus; details: for EC50: Hepatitis C virus, Huh-5-2, genotype 1b replicon, Huh5.2 cells, 72 hours; for Selectivity index (CC50/EC50): Huh5.2 replicon assay
Procedure: as §1
For the evaluation of antiviral effects, assay medium is aspirated and the cell monolayers are washed with PBS. The wash buffer is aspirated, 25 μL of Glo Lysis Buffer (Cat. N°. E2661, Promega) is added after which lysis is allowed to proceed for 5 min at room temperature. Subsequently, 50 μL of Luciferase Assay System (Cat. N^o. E1501, Promega) is added and the luciferase luminescence signal is quantified immediately (1000 ms integration time/well, Safire^2, Tecan). Relative luminescence units are converted to percentage of untreated controls.
as §2

[4] = target: T1, CypA Peptidyl Prolyl cis-trans Isomerase (PPlase) (Homo sapiens, UniProt P62937); assay: Inhibition of CypA PPIase activity; format: biochemical
T1 construct: GST (cleaved yes); made in house
Procedure: An alternative methodology for analysing interaction with cyclophilins is described as follows: The PPlase activity of recombinant CypA or D, produced by thrombin cleavage of GST-CypA or D, was determined by following the rate of hydrolysis of N-succinyl-Ala-Ala-Pro-Phe-p-nitroanilide by chymotrypsin. Chymotrypsin only hydrolyzes the trans form of the peptide, and hydrolysis of the cis form, the concentration of which is maximized by using a stock dissolved in trifluoroethanol containing 470 mM LiCl, is limited by the rate of cis-trans isomerization. CypA or D was equilibrated for 1 h at 5° C. with selected test article using a drug concentration range from 0.1 to 20 nM. The reaction was started by addition of the peptide, and the change in absorbance was monitored spectrophotometrically at 10 data points per second. The blank rates of hydrolysis (in the absence of CypA or D) were subtracted from the rates in the presence of CypA or D. The initial rates of the enzymatic reaction were analyzed by first-order regression analysis of the time course of the change in absorbance.

[5] = immunosuppressive activity; cited from earlier work
[6] = system: HIV; assay: HIV antiviral assay using HeLa cells; format: cell-based, Human Immunodeficiency Virus

T1 sequence (P62937 whole entry): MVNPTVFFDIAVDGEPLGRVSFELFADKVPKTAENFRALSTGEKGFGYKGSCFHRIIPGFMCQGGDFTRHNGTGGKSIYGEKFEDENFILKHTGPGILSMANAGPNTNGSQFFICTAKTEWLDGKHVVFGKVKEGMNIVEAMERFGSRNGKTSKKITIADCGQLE

SMILES: CON(C)C(=O)/C=C/C=C(\C)[C@@H]1C/C=C/C=C/[C@H](O)[C@H](C)[C@@H](O)[C@@H](CCC(C)=O)C(=O)N[C@@H](C(C)C)C(=O)N[C@@H](Cc2cc(O)cc(F)c2)C(=O)N2CCCC(N2)C(=O)O1 (stereo partly shown) [Compound 23]
- clearance ([1]; iv at 1 mg/kg): 0.65 mL/min/kg
- AUC(0-t) ([1]; po, dose level 5 mg/kg, read-out: po AUClast): 2760 ng·h/mL
- CC50 at 72 h [2]: > 100000 nM
- EC50 [3]: 67 nM
- Selectivity index (CC50/EC50) [3]: >1493
- IC50 ([4]; read-out: CypA PPIase IC50): 0.33 nM

SMILES: CC(=O)CC[C@H]1C(=O)N[C@@H](C(C)C)C(=O)N[C@@H](Cc2cc(O)cc(F)c2)C(=O)N2CCCC(N2)C(=O)O[C@H](/C(C)=C/C=C/C(=O)Nc2ccccn2)C/C=C/C=C/[C@H](O)[C@H](C)[C@H]1O (stereo partly shown) [Compound 25]
- CC50 at 72 h [2]: > 100000 nM
- EC50 [3]: 66 nM
- Selectivity index (CC50/EC50) [3]: >1515
- IC50 [4]: 1.15 nM

SMILES: CC(=O)CC[C@H]1C(=O)N[C@@H](C(C)C)C(=O)N[C@@H](Cc2ccc(C)c(O)c2)C(=O)N2CCCC(N2)C(=O)O[C@H](/C(C)=C/C=C/C(=O)N2CCCCO2)C/C=C/C=C/[C@H](O)[C@H](C)[C@H]1O (stereo partly shown) [Compound 27]
- CC50 at 72 h ([2]; Huh5.2 cells containing the HCV genotype 1b replicon): > 100000 nM
- EC50 [3]: 121 nM
- Selectivity index (CC50/EC50) [3]: >826
- IC50 ([4]; read-out: CypA PPIase IC50): 0.35 nM

SMILES: CC[C@H]1C[C@H](C)[C@@]2(NC1=O)O[C@@H](C[C@H](O)[C@@H](C)CC/C=C/C=C(\C)[C@@H]1C/C=C/C=C/[C@H](O)[C@H](C)[C@@H](O)[C@@H](CCC(C)=O)C(=O)N[C@@H](C(C)C)C(=O)N[C@@H](Cc3cccc(O)c3)C(=O)N3CCC[C@H](N3)C(=O)O1)[C@H](C)[C@H](O)[C@@H]2C [Sanglifehrin A, 5, Sanglifehrin A]
- less potent than Cyclosporine A [5]: 10 fold

SMILES: C[C@H](Cn1cnc2c(N)ncnc21)OCP(=O)(O)O [Tenofovir]
- EC50 [6]: 1050 nM
